Earlier results in patent publication US6531463B1, “Method for producing a fat mixture” (Spice Sciences Oy, priority 1998, dated 2003).

How the values were obtained:
[1] = system: absorption of cholesterol; conditions: for decrease of the absorption of cholesterol: nine adult patients, 5 days, 500 mg of cholesterol, 1 gram of β-sitosterol or 2 grams of β-sitosteryl oleate
[2] = system: serum cholesterol; conditions: in vivo
[3] = administered orally
[4] = system: cholesterol levels; conditions: added to the feed of cholesterol fed chicken
[5] = system: cholesterol levels, atherogenesis; conditions: added to the feed of cholesterol fed rabbits
[6] = system: absorption of cholesterol
[7] = system: cholesterol levels; conditions: preparations studied in 1950's and 1960's

Row | Molecule | reduction of the absorption of cholesterol from food ([1]; 1 gram of β-sitosterol, food containing 500 mg of cholesterol) [%] | decrease of the absorption of cholesterol [1] [%] | lowering of the LDL-cholesterol level [2] [%] | lowering of the total serum cholesterol level [2] | proportion absorbed [3] | cholesterol levels [4] | atherogenesis [5] | cholesterol levels [5] | absorption of cholesterol ([6]; female rats (Uchita et al.)) | cholesterol balance in plasma and liver ([6]; female rats (Uchita et al.)) | inhibition of absorption of cholesterol ([6]; rats (Vahouny et al.)) [%] | lowering of cholesterol levels [7]
1 | CC[C@H](CC[C@@H](C)[C@H]1CC[C@H]2[C@@H]3CC=C4C[C@@H](O)CC[C@]4(C)[C@H]3CC[C@]12C)C(C)C [β-sitosterol, stigmasta-5-en-3β-ole] | 42 | 42 | 19 | 10-15% | less than 5% | cholesterol levels were lowered | prevented atherogenesis | cholesterol levels were lowered | – | – | – | –
2 | sitosterol | – | – | – | – | – | – | – | – | inhibits absorption of cholesterol | lowers cholesterol balance in plasma and liver | 54 | about 10%
3 | CCCCCCCC/C=C\CCCCCCCC(=O)O[C@H]1CC[C@@]2(C)C(=CC[C@H]3[C@@H]4CC[C@H]([C@H](C)CC[C@@H](CC)C(C)C)[C@@]4(C)CC[C@@H]32)C1 [β-sitoteryl oleate, β-sitosteryl oleate] | – | 33 | – | – | – | – | – | – | – | – | – | –
